Assay [1] relates to CFA-induced pain model in rats. Nature of the assay: Antiallodynic activity on Complete Freund's Adjuvant (CFA)-induced inflammatory pain model. Particulars: Rattus norvegicus, ip, 50 mg/kg intraperitoneally, von Frey threshold relative to sham, 0.5 hr after administration, read-out: Efficacy of 50 mg/kg(%). Format: in vivo, Sprague-Dawley rats. In outline: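 Male Sprague-Dawley rats given 100 ul CFA intraplantar in the right hind paw; one week later, ipsilateral mechanical allodynia (baseline threshold <4 g required) assessed with von Frey up-and-down method, 50% withdrawal threshold by Dixon formula. Compounds 50 mg/kg i.p. in 30% PEG or 20% Tween 80, tested 0.5 h post-dose; values as % of sham.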

The subject of assay [2] is ICR mice on hot plate. Put plainly: Hot-plate test. Particulars: Mus musculus, po, orally, withdrawal latency. Format: in vivo. As for the experimental part:
To examine the pain relief effect of the carbamate compounds, a hot-plate test was conducted in referring to Current Protocols in Neuroscience; Behavioral Neuroscience Unit 8.9.
ICR mice (male, 25-28 g; Orient Bio, Korea) were habituated before test (in test room) for 1 hour. Animals were fasted 2 hr before administration of compounds. Compounds were orally administered at the three dose, 10 ul/g, by bodyweight (n=4-6/group). All compounds were dissolved in a vehicle of 30% (v/v) PEG 400 or 20% (v/v) Tween 80. The control group was treated the vehicle without compounds.
0.25-2.0 hr after the administration of compounds, the mice were put on a hot plate pre-heated to 55±1 (Hu, X. et al, 2008), and then, the withdrawal latency time was measured (cut-off time: 30 sec) until the point when each mouse was taking a paw off from the plate, shaking, licking a paw or hind leg, or jumping from the plate.
A general note: In hot-plate and tail-flick tests a longer latency is read as antinociception.

For assay [3], the system named is MES (electroshock) seizure in mice. Put plainly: Anti-epilepsy activity, MES test in mouse. Particulars: po. Format: in vivo, ICR mice. In outline: (§1)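 Male ICR mice (19–25 g) and male SD rats (100–130 g) dosed orally with compound in 20% Tween 80/saline, then shocked via corneal electrodes at peak time (mice 50 mA, rats 150 mA; 60 Hz, 0.2 sec). Three doses used; ED50 for seizure protection by Litchfield–Wilcoxon log-probit.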

The test system of assay [4] is MES (electroshock) seizure in rats. Put plainly: Anti-epilepsy activity, MES test in rats. Format: in vivo, SD rats. Particulars: Rattus norvegicus, po. The gist of the method:
as §1

Assay [5] deals with Picrotoxin (PIC)-induced clonic seizure in mice. Nature of the assay: Chemical induced seizure model (PIC). Format: in vivo, ICR mice. On the procedure: Picrotoxin (PIC) were used to induce the behavioral seizures in the experiments. Male ICR mice (purchased from Orient Bio Inc. Korea) of body weight 19-26 g (mice) were used for these studies. The test materials were administered intraperitoneal (ip) route in a volume of 10 ul/g (mice) weight in rats or mice, respectively. Pharmacological effects of the test materials were evaluated to compared test groups (n=6) with a control group (n=6). Control group was administrated vehicle, only. The peak time was determined by administration of test material's random dose for 0.5, 1, 2, 4 hour. The time that the most protect was defined as a peak time and ED50 was determined by other dose administration at the peak time. Chemical (PIC) was dissolved in 0.9% saline and administered subcutaneously (s.c.) at its CD97 (convulsive dose 97%), the dose of Chemical (PIC) that produced clonic seizures in 97% into a loose fold of skin in the midline of the neck in a volume of 10 ul/g (mice) body weight. The animals were then transferred to observation cages and observed continuously for 45 min. Clonic seizure was elicited in approximately 97% of control group. Protection was defined as a complete absence of clonic seizure over the 45-min observation period. The effective dose of compound necessary to protect against generalized convulsive seizures to 50% of controls (i.e., ED50) was determined by log probit analysis using SPSS software program (SPSS Inc.). (Reference; White H. S., J. H. Woodhead, K. S. Wilcox, J. P. Stables, H. J. Kupferberg, and H. H. Wolf. General Principles; Discovery and Preclinical Development of Antiepileptic Drugs. In: R. H. Levy, R. H. Mattson, B. S. Meldrum, and E. Perucca, eds. Antiepileptic Drugs, 5th Ed. Lippincott Williams & Wilkins, Philadelphia 2002: pp. 36-48.) The obtained results are shown in following Table 10.

Here are results for two compounds from patent US11168052B2, “Carbamate derivative compounds, processes for preparing them and their uses” (BIO-PHARM SOLUTIONS CO., LTD., priority 2016, dated 2021).

A value given as a limit tells only on which side of the number the result lay.

What is called ED50 is the dose at which the effect has come halfway, by size or by number of responders. Regarding `NC(=O)O[C@@H]1CCc2cccc(Cl)c2[C@@H]1O` [Example 1, (1S, 2R)-8-chloro-1-hydroxy-1,2,3,4-tetrahydronaphthalen-2-yl carbamate], the response vs control in vivo at 50 mg/kg in assay [1] turned out to be 74.9%. In addition, the ED50 in assay [2] is 101 mg/kg; in assay [3] it was 12.1 mg/kg; in assay [4], 5.9 mg/kg; in assay [5] (Mus musculus, ip, read-out: PIC(ip) ED50) it was 23.7 mg/kg.

With `NC(=O)O[C@@H]1c2c(Cl)cccc2CC[C@@H]1O` [Example 19, (1R, 2S)-8-chloro-2-hydroxy-1,2,3,4-tetrahydronaphthalen-1-yl carbamate], in assay [1], the response vs control in vivo at 50 mg/kg came to 51.6%. Further, the values for the ED50 in assay [2], in assay [3] and in assay [4] were more than 100 mg/kg, 22.4 mg/kg and 4.6 mg/kg, respectively. In assay [5] (mice, dose 120 mg/kg), the “PIC(ip) efficacy %” value is listed as 120 (16.6%).
